Reference: patent publication US10829506B2, “Amino- or ammonium-containing sulfonic acid, phosphonic acid and carboxylic acid derivatives and their medical use” (GRI Bio, Inc., priority 2011, dated 2020)

System: RBL-2H3 cells
Experiment: Inhibition of mast cell degranulation (β-hexosaminidase release)
Format: cell-based, rat
Conditions: Rattus norvegicus, RBL-2H3 cells sensitized with anti-DNP IgE, triggered with DNP-HSA, 1 h preincubation
Excerpt: Mast cells are key effector cells involved in allergic and inflammatory diseases, and the Rat Basophilic Leukemia clone 2H3 (RBL-2H3) cell line is a commonly used model of allergen dependent immune modulator release (degranulation) in mast cells. On their surface, they express the high affinity receptor for IgE (FcεRI). Upon binding of antigen-specific IgE to the receptor, cells become sensitized to the IgE specific antigen (allergen). When IgE-sensitized cells then encounter multivalent antigen, the antigen clusters IgE-FcεRI complexes and initiates a signal transduction cascade that leads to degranulation, that is, the release of inflammatory mediators, such as cytokines, eicosanoids, histamine and enzymes. The assay can be used as a screening method to identify immune-modulating compounds, in particular compounds useful in the medical management of allergic and inflammatory diseases and asthma, β-hexosaminidase was previously shown to be released with the same kinetics as histamine (Schwartz et al., J Immunology; 123:1445-1450 (1979)), thus offering a simple means to monitor degranulation. The RBL-2H3 cell line has been successfully used to identify compounds with anti-allergic activity (Choo et al. Planta Med., 69:518-522 (2003)).
Cell Culture: RBL-2H3 cells obtained from the German Collection of Microorganisms and Cell Cultures (ACC312) (Braunschweig, Germany) were maintained in 70% Minimum Essential Medium with Earle's Salts, 20% RPMI 1640 Medium, 10% FBS and 2 mM l-glutamine in 95% air/5% CO2 at 37° C. and routinely checked for mycoplasma contamination. Cells were passaged every 3-4 days; after washing cells once with 35 ml PBS cells were incubated 8 min with 5 ml 0.05% Trypsin-EDTA solution at 37° C. Cells were removed from the incubator, 15 ml culture medium was added and cells were resuspended by repeated pipetting.
Cell seeding: cells were harvested with Trypsin-EDTA as described and 50-100 μl cell suspension seeded Into Costar CellBind 24 well cluster plates (no. 3337). Plates were kept for 30 min at RT under the sterile hood before being transferred to the incubator. Cells were used within one or two days after seeding.
For sensitization, cells for immediate use were sensitized 6-12 h after plating; cells to be used the following day were sensitized 26-38 h after plating. Culture plates were removed from the incubator and checked for cell growth and contamination. The medium was discarded and cells were sensitized with anti-DNP IgE (0.4 μg/ml) in 0.4 ml culture medium overnight. Following overnight sensitization, cells were washed with 0.8 ml pre-warmed TyB and 0.38 ml test compound or vehicle control (supplemented or not with 1% FBS) were added to duplicate wells. Samples were adjusted to contain 1% vehicle for test compounds dissolved in organic solvents. Cells were incubated for 1 h at 37° C. At the end of the incubation period, cells were routinely stimulated with 20 μl DNP-HSA (2 μg/ml; final concentration 0.1 μg/ml) diluted in TyB and cells were incubated for 15 min at 37° C. Alternatively, cells were stimulated with 20 μl […] (final concentration 0.25 μM) or 20 nM […] (final concentration 0.25 μM), both in the absence or presence of 20 nM PMA (final concentration).
Plates were removed from the incubator and immediately centrifuged at 4° C. for 5 min at 250×g and transferred to an ice bath. Aliquots of supernatants, 25 μl, were transferred to 96-well plates. Remaining supernatant was aspirated from control wells and cells were lysed in […] lysis buffer for 5 min at RT on an orbital shaker at 450 rpm under non-sterile conditions. After lysis, 25 μl aliquots of lysates were transferred to 96-well plates.
MUG substrate solution, 100 μl, were added to supernatant and lysate samples and plates were incubated 30 min at 37° C. The reaction was terminated by addition of 150 μl stop solution. Fluorescence was measured at 365 nm excitation and 440 nm emission wavelengths. […]

In the case of `CCCCCCCCCCCCCC[N+](C)(C)CCCS(=O)(=O)[O-]` [Compound 1a, 3-(N,N-Dimethylmyristylammonio)-Propanesulfonate], the IC50 is reported as 3.2 µM.
